Experimental data reported in patent US20240016718A1 (priority 2020, published 2024).
Where “and” joins values, the source holds several entries; their conditions need not be identical. Equal values may be shown once.

Tests used:
[1] = test system: dermis (inflammatory infiltrate); conditions: Rhino (RHJ/LeJ), mouse, in vivo
[2] = test system: keratinocytes; parameters: species or system Rhino mice (RHJ/LeJ); conditions: mouse, in vivo
[3] = test system: back skin of Rhino mice; conditions: Rhino (RHJ/LeJ), mouse, in vivo
[4] = test system: Substance P; parameters: species or system Rhino mice (RHJ/LeJ); conditions: mouse, in vivo
[5] = test system: sebaceous glands; parameters: species or system Rhino mice (RHJ/LeJ); conditions: mouse, in vivo
[6] = test system: dorsal skin; conditions: Rhino (RHJ/LeJ), mouse, in vivo
[7] = test system: epidermis (back skin); conditions: Rhino (RHJ/LeJ), mouse, in vivo
[8] = test system: utriculi; parameters: species or system Rhino mice (RHJ/LeJ); conditions: mouse, in vivo
[9] = test system: sebocytes; parameters: species or system Rhino mice (RHJ/LeJ); conditions: mouse, in vivo
[10] = test system: fibroblasts; parameters: species or system Rhino mice (RHJ/LeJ); conditions: mouse, in vivo
[11] = test system: IL-1 alpha; parameters: species or system Rhino mice (RHJ/LeJ); conditions: mouse, in vivo
[12] = test system: sebaceous lipids in sebum (fatty acid, squalene, cholesterol, wax esters, cholesteryl ester); parameters: species or system Rhino mice (RHJ/LeJ); conditions: mouse, in vivo

COc1ccc(-c2ccc3cc(C(=O)O)ccc3c2)cc1C12CC3CC(CC(C3)C1)C2 [Adapalene]
Increase of inflammation of the dermis [1]: +23%
Increase of Ki67 positive cells in epidermis (keratinocytes) [2]: 30%
Ki67 positive cells per mm^2 [2]: 4411.7 cells per mm^2 and 4260.9 cells per mm^2 and 4248.9 cells per mm^2 and 3981.7 cells per mm^2 and 4121.7 cells per mm^2 and 4733.8 cells per mm^2
Erythema mean score on dorsal skin [3]: 0.3-1.1
Scaling mean score on dorsal skin [3]: 0.5-1.3
Substance P concentration in back skin [4]: 335.5 pg/g tissue and 414.1 pg/g tissue and 453.4 pg/g tissue and 409.8 pg/g tissue and 403.9 pg/g tissue and 491.3 pg/g tissue
Increase of sebaceous glands surface versus vehicle group [5]: +82%
Thickening of the dorsal skin as compared to the vehicle group [6]: +14%
Increase in epidermis thickness (hyperplasia) [7]: +188%
Decrease in the surface area of the utriculi [8]: 94%
utriculi surface [8]: 515.3 μm^2 and 545.4 μm^2 and 585.7 μm^2 and 515.2 μm^2 and 806.1 μm^2 and 527.4 μm^2 and 605.0 μm^2
Ki67 positive cells per mm^2 [9]: 3722.1 cells per mm^2 and 4331.9 cells per mm^2 and 3916.9 cells per mm^2 and 3392.4 cells per mm^2 and 4299.5 cells per mm^2 and 2928.2 cells per mm^2
Increase of Ki67 positive cells in dermis (fibroblasts) [10]: 43%
Ki67 positive cells per mm^2 [10]: 1229.8 cells per mm^2 and 1499.9 cells per mm^2 and 2072.0 cells per mm^2 and 1218.1 cells per mm^2 and 1088.8 cells per mm^2 and 1181.9 cells per mm^2
Decrease of IL-1 alpha level versus vehicle [11]: 96%
IL-1 alpha Concentration [11]: 50.4 ng/g tissue and 40.3 ng/g tissue and 45.1 ng/g tissue and 47.8 ng/g tissue and 69.3 ng/g tissue and 36.4 ng/g tissue
IL-1 alpha level in back skin (mean±SD) [11]: 47.7±11.5 ng/g tissue
Induction of increased excretion of fatty acid to the epidermis [12]: did not
